Assays:
[1] = tested on: N2a cells expressing K18/ΔK280; test: Tau aggregation in cells, sarkosyl extraction and Western blot densitometry; type: cell-based, mouse; conditions: 15 μM emodin
Source text: A crucial test for the application of inhibitors is their effect in cell models of tauopathy. A neuroblastoma (N2a) cell line which allows inducible expression of the tau construct K18ΔK280 under the control of the tet-on transactivator was generated. This construct was chosen because it contains the FTDP17 mutation ΔK280 in the 4-repeat domain K18 which promotes the formation of β-structure and therefore aggregates readily, even in the absence of polyanionic inducers (von Bergen et al., 2001; {Barghorn, 2002).
The tau construct K18/ΔK280 was expressed in the mouse neuroblastoma cell line N2a in an inducible manner under the control of the reverse tetracycline-controlled transactivator (rtTA) as described elsewhere (Gossen & Bujard, 2002). […] After 3-7 days the cells were harvested and tested for tau aggregation, thioflavin S fluorescence, and viability.
The levels and solubility of the K18/ΔK280 tau protein were determined by the method of Greenberg and Davies (1990) which makes use of the insolubility of protein aggregates after treatment with sarkosyl. The supernatant and sarcosyl-insoluble pellets were analysed by Western blotting with the pan-tau antibody K9JA and analysed by densitometry. Aggregation of tau in cells was tested by the fluorescence of thioflavine S. ThS signals were scored in three independent fields containing 40 cells each. […]

[2] = tested on: N2a cells expressing K18/ΔK280; test: Tau aggregation in cells, thioflavine S staining; type: cell-based, mouse; conditions: 15 μM emodin
Experimental: The tau construct K18/ΔK280 was expressed in the mouse neuroblastoma cell line N2a in an inducible manner under the control of the reverse tetracycline-controlled transactivator (rtTA) as described elsewhere (Gossen & Bujard, 2002). The inducible N2a/K18ΔK280 cells were cultured in MEM medium supplemented with 10% fetal calf serum, 2 mM glutamine and 0.1% nonessential amino acids. The expression of K18/ΔK280 was induced by addition 1 μg doxycyclin per 1 ml medium. The effect of aggregation inhibition was observed by adding the inhibitor emodin (15 μM). After 3-7 days the cells were harvested and tested for tau aggregation, thioflavin S fluorescence, and viability.
The levels and solubility of the K18/ΔK280 tau protein were determined by the method of Greenberg and Davies (1990) which makes use of the insolubility of protein aggregates after treatment with sarkosyl. The supernatant and sarcosyl-insoluble pellets were analysed by Western blotting with the pan-tau antibody K9JA and analysed by densitometry. Aggregation of tau in cells was tested by the fluorescence of thioflavine S. ThS signals were scored in three independent fields containing 40 cells each.
Two parallel cell cultures were incubated, one with 1 μg/ml doxycyclin (to induce the expression of the protein), another with 1 μg/ml doxycyclin and 15 μM emodin for 3 days. […]

K18 filaments (Y310W) = test: Tryptophan fluorescence depolymerisation assay, K18 filaments; type: biochemical, human; conditions: 60 μM compound
Experimental: For the fluorescence depolymerisation assay, 60 μM inhibitor compound were added to pre-formed PHFs (10 μM) and incubated overnight at 37° C. PHFs were formed by incubation of tau construct K19/Y310W (50 μM) or K18/ΔK280/Y310W with 12.5 μM heparin in volume of 100 μl at 37° C. in PBS, pH 7.4. Incubation time was three days. The formation of aggregates was observed as a shift of the emission maximum from ˜354 nm to ˜340 nm.
All other compounds yielded emission maxima of the protein after treatment around 350-353 nm, close to the value of soluble tau, indicating a depolymerisation efficiency of about 80-90%.
FIG. 5: Disassembly of preformed PHFs measured by tryptophan fluorescence shift assay and filter assay. Experiments were performed with tau constructs containing the Y310W mutation as in FIG. 3.

Aβ1-40 fibrils = molecular target: T1, Aβ1-40 fibrils (Homo sapiens, UniProt P05067); test: Disassembly of pre-formed Aβ fibrils (thioflavine T); type: biochemical; conditions: 60 μM compound, 10 μM Aβ1-40
T1 construct: Commercial human Aβ1-40 was obtained from Calbiochem; purchased Calbiochem
Experimental: Besides the activity of the compounds towards tau fibres, their specificity is an important issue, i.e. the ability to discriminate between different types of aggregates. Therefore, an analysis of the influence of the compounds (60 μM) on amyloid fibrils made from the Aβ1-40 peptide, both in terms of inhibition of de novo filament formation and depolymerisation was performed (FIGS. 8A-B). These fibres are also abundant in Alzheimer brain and contain a core of cross-β-structure, but are located outside the cells, in contrast to the intracellular PHFs.
Commercial human Aβ1-40 was obtained from Calbiochem (Schwalbach, Germany) and stored at −20° C. The AD peptide was routinely dissolved in 100% DMSO to obtain a 2 mM stock solution, which was subsequently stored frozen at −20° C. […] For analysis 5 μl of this solution were added to 45 μl 10 mM phosphate buffer containing 6 μM thioflavine T, pH 6.0, after 30 minutes incubation at room temperature the fluorescence was measured at 504 nm emission by an excitation of 409 nm. To correlate fibril morphology with the fluorescence signal, aliquots of the Aβ1-40 solutions were simultaneously prepared for electron microscopy. […]

T1 sequence (P05067 672-711): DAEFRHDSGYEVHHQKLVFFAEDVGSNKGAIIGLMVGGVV

Structure (SMILES) | reduction of sarkosyl-insoluble fraction ([1]; 7 days) | sarkosyl-insoluble fraction of total cellular tau (K18/ΔK280) ([1]; 7 days induction, untreated 14%) | inhibition of aggregation as measured by ThS [2] | cells with ThS signal ([2]; 3 days induction, without emodin 28%) | depolymerisation efficiency, K18 filaments, Trp fluorescence (K18 filaments (Y310W)) | depolymerisation activity, Aβ fibrils (Aβ1-40 fibrils)
Cc1cc(O)c2c(c1)C(=O)c1cc(O)cc(O)c1C2=O [Emodin, 1,3,8-Trihydroxy-6-methyl-anthraquinone] | 5 fold | 3% | about 2 fold | 15% |  | 
O=C(c1ccccc1)c1ccc(O)c(O)c1O [PHF005, 1-Phenyl-1-(2,3,4-trihydroxy-phenyl)-methanone] |  |  |  |  | 80% | ~50%
